From PubChem BioAssay AID1259411 (Chemical Carcinogenesis Research Information System (CCRIS), 2018)
Calls of active or inactive are those of the source. How the calls were made is not given here.

Test system: rodent carcinogenicity bioassays, tumor incidence
Test: CCRIS carcinogenicity studies
Method in brief: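 NCI-built, expert-reviewed records of carcinogenicity and related test outcomes (mutagenicity, tumor promotion/inhibition) compiled from published and report sources, historical span 1985-2011, not updated.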

Measured: carcinogen call

COP(=S)(OC)Oc1ccc(SC)c(C)c1
inactive: Species: MOUSE, Strain/Sex: B6C3F1/FEMALE, Route: ORAL, Dose: 0, 10, 20 PPM IN DIET, Dose: 0, 10, 20 PPM IN DIET inactive; negative | Species: Mouse, Strain/Sex: B6C3F1/Female (60/group), Route: Oral, Dose: 0, 0.1, 1, 5, 25 ppm in diet for up to 2 yr, study duration 2 yr, Dose: 0, 0.1, 1, 5, 25 ppm in diet for up to 2 yr, study duration 2 yr inactive; negative | Species: Mouse, Strain/Sex: B6C3F1/Male (60/group), Route: Oral, Dose: 0, 0.1, 1, 5, 25 ppm in diet for up to 2 yr, study duration 2 yr, Dose: 0, 0.1, 1, 5, 25 ppm in diet for up to 2 yr, study duration 2 yr inactive; negative | Species: RAT, Strain/Sex: F344/MALE, Route: ORAL, Dose: 0, 10, 20 PPM IN DIET, Dose: 0, 10, 20 PPM IN DIET inactive; negative | Species: Rat, Strain/Sex: Fischer 344/Female (50/Group), Route: Oral, Dose: 0 (corn oil), 5, 20, 100 ppm in diet for 2 yr, study duration 2 yr, Dose: 0 (corn oil), 5, 20, 100 ppm in diet for 2 yr, study duration 2 yr inactive; negative | Species: Rat, Strain/Sex: Fischer 344/Male (50/Group), Route: Oral, Dose: 0 (corn oil), 5, 20, 100 ppm in diet for 2 yr, study duration 2 yr, Dose: 0 (corn oil), 5, 20, 100 ppm in diet for 2 yr, study duration 2 yr inactive; negative

O=S(=O)(O)c1ccc(N=Nc2cc(S(=O)(=O)O)c3ccccc3c2O)c2ccccc12
inactive: Species: MOUSE, Strain/Sex: B6C3F1/FEMALE, Route: ORAL, Dose: 0, 3000, 6000 PPM IN DIET, Dose: 0, 3000, 6000 PPM IN DIET inactive; negative | Species: MOUSE, Strain/Sex: B6C3F1/MALE, Route: ORAL, Dose: 0, 3000, 6000 PPM IN DIET, Dose: 0, 3000, 6000 PPM IN DIET inactive; negative | Species: RAT, Strain/Sex: F344/FEMALE, Route: ORAL, Dose: 0, 12500, 25000 PPM IN DIET, Dose: 0, 12500, 25000 PPM IN DIET inactive; negative | Species: RAT, Strain/Sex: F344/MALE, Route: ORAL, Dose: 0, 6000, 12500 PPM IN DIET, Dose: 0, 6000, 12500 PPM IN DIET inactive; negative | Species: RAT, Strain/Sex: WISTAR/FEMALE, Route: ORAL, Dose: 0, 100, 400, 1200 MG/KG/D IN BASAL DIET TO PUPS OF PARENTS EXPOSED TO THE SAME DOSE LEVELS FOR 9 WK PRIOR TO MATING AND, Dose: 0, 100, 400, 1200 MG/KG/D IN BASAL DIET TO PUPS OF PARENTS EXPOSED TO THE SAME DOSE LEVELS FOR 9 WK PRIOR TO MATING AND inactive; negative | Species: RAT, Strain/Sex: WISTAR/MALE, Route: ORAL, Dose: 0, 100, 400, 1200 MG/KG/D IN BASAL DIET TO PUPS OF PARENTS EXPOSED TO THE SAME DOSE LEVELS FOR 9 WK PRIOR TO MATING AND, Dose: 0, 100, 400, 1200 MG/KG/D IN BASAL DIET TO PUPS OF PARENTS EXPOSED TO THE SAME DOSE LEVELS FOR 9 WK PRIOR TO MATING AND inactive; negative
